Structures can show the parent of a compound that is named as a salt.
These compounds were tested against T1, USP7 (Homo sapiens, UniProt Q93009, C315A) (assay: Inhibition of USP7 by Fluorescence Intensity (FLINT) readings, Ubiquitin-Rhodamine-110 substrate). Conditions: 0.25 nM His-His-USP7 (aa208-560), 60 minutes at 30° C. preincubation; Ki determined from IC50 according to Cer et al.
T1 construct: 0.25 nM His-His-USP7 (aa208-560, |C315A|) was incubated with compound; His-His (N)
Assay type: biochemical
Procedure: USP7 activity was measured using Rhodamine-110 c-terminal labelled Ubiquitin as a substrate (UbiQ Bio), Incubation with USP7 results in the release of Rhodamine-110 leading to an increase in fluorescence which can be used in the continuous measurement of USP7 activity.
The USP7 reactions were performed in a 50 μL volume, in 384 well black solid low binding plates (Corning #3575). The reaction buffer consisted of 100 mM Bicine pH 8.0, 0.01% TritonX 100, 1 mM TCEP, and 10% DMSO.
0.25 nM His-His-USP7 (aa208-560, |C315A|) was incubated with compound (final concentration 10% DMSO) for 60 minutes at 30° C. The reaction was then initiated by the addition of 50) nM Ubiquitin-Rhodamine-110 substrate or 4 μM Ubiquitin-Rhodamine-110 substrate and the plate read every 3 minutes for 21 minutes to measure the release of Rhodamine-110. Fluorescence Intensity (FLINT) readings were measured using a Biomek Neo plate reader (Ex.485 nm, Em.535 nm).
The inhibition of increasing doses of compound was expressed as a percentage reduction in kinetic rate compared to the kinetic rates established between ‘DMSO only’ and ‘total inhibition’ controls (no USP7). The inhibitory concentrations that gave a 50% reduction in kinetic rate (IC50) were determined, from 11-point dose response curves, in XL-Fit using a 4-Parameter Logistic Model 205 (Sigmoidal Dose-Response Model). The K, values were determined from the IC50 values according to Cer et al. Nucleic Acids Res. 2009, July 1; 37 (WebServer issue): W441-W445.

T1 sequence (Q93009 208-560 C315A): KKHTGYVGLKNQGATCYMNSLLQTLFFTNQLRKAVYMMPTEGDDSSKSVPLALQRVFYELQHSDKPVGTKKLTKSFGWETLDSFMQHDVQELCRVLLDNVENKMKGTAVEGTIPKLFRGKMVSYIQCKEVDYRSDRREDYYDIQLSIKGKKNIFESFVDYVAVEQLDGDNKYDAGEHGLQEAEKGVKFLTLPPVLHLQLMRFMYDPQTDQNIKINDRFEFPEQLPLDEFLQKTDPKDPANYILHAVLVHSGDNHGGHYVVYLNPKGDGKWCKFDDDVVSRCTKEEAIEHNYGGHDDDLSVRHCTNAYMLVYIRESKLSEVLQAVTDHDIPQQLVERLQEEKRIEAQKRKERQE

SMILES	Ki [nM]
CC(C)(C)OC(=O)N1CC[C@@H](C(=O)N2CC[C@](O)(Cn3cnc(Oc4ccc(F)cc4)c(N)c3=O)C(F)(F)C2)[C@H](c2ccccc2)C1 [Example 10]	104
CC1(N2CC[C@@H](C(=O)N3CCC(O)(Cn4cnc(Oc5ccccc5)c(N)c4=O)CC3)[C@H](c3ccccc3)C2)COC1 [Example 113, 5-amino-3-[[4-hydroxy-1-[(3R,4R)-1-(3-methyloxetan-3-yl)-3-phenyl-piperidine-4-carbonyl]-4-piperidyl]methyl]-6-phenoxy-pyrimidin-4-one]	30.6
CC(C)(C)OC(=O)N1CC[C@@H](C(=O)N2CCC(O)(Cn3cnc(Oc4ccccc4)c(N)c3=O)CC2)[C@H](c2ccccc2)C1 [Example 7, tert-butyl (3R,4R)-4-[4-[(5-amino-6-oxo-4-phenoxy-pyrimidin-1-yl)methyl]-4-hydroxy-piperidine-1-carbonyl]-3-phenyl-piperidine-1-carboxylate]	137
Nc1c(Oc2cccnc2)ncn(CC2(O)CCN(C(=O)[C@@H]3CCNC[C@H]3c3ccccc3)CC2)c1=O [Example 151, 5-amino-3-[[4-hydroxy-1-[(3R,4R)-3-phenylpiperidine-4-carbonyl]-4-piperidyl]methyl]-6-(3-pyridyloxy)pyrimidin-4-one, hydrochloride]	214
COc1cc(Oc2ncn(CC3(O)CCN(C(=O)[C@@H]4CCNC[C@H]4c4ccccc4)CC3)c(=O)c2N)ccc1F [Example 17, 5-amino-6-(4-fluoro-3-methoxy-phenoxy)-3-[[4-hydroxy-1-(3R,4R)-3-phenylpiperidine-4-carbonyl]-4-piperidyl]methyl]pyrimidin-4-one hydrochloride]	116
COc1cc(Cl)cc(Oc2ncn(CC3(O)CCN(C(=O)[C@@H]4CCNC[C@H]4c4ccccc4)CC3)c(=O)c2N)c1 [Example 15]	286
Nc1c(Oc2ccccc2)ncn(CC2(O)CCN(C(=O)[C@@H]3CCN(C4(c5ccc(F)cc5)COC4)C[C@H]3c3ccccc3)CC2)c1=O [Example 115]	418
CC(C)(C)OC(=O)N1CC[C@@H](C(=O)N2CC[C@](O)(Cn3cnc(Oc4ccccc4)c(N)c3=O)C(F)(F)C2)[C@H](c2ccccc2)C1 [Example 9, tert-butyl (3R,4R)-4-[(4S)-4-[(5-amino-6-oxo-4-phenoxy-pyrimidin-1-yl)methyl]-3,3-difluoro-4-hydroxy-piperidine-1-carbonyl]-3-phenyl-piperidine-1-carboxylate]	82.5
Nc1c(Oc2ccc(F)cc2)ncn(CC2(O)CCN(C(=O)[C@@H]3CCNC[C@H]3c3ccccc3)CC2)c1=O [Example 21, 5-amino-6-(4-fluorophenoxy)-3-[[4-hydroxy-1-[(3R,4R)-3-phenylpiperidine-4-carbonyl]-4-piperidyl]methyl]pyrimidin-4-one]	103
Nc1c(Oc2ccc(F)cc2)ncn(CC2(O)CCN(C(=O)[C@@H]3CCN(C(=O)c4ccc5nc[nH]c(=O)c5c4)C[C@H]3c3ccccc3)CC2)c1=O [Example 57, 6-[(3R,4R)-4-(4-t[5-amino-4-(4-fluorophenoxy)-6-oxopyrimidin-[(6N)-yl]methyl}-4-hydroxypiperidine-1-carbonyl)-3-phenylpiperidine-1-carbonyl]quinazolin-4(3n)-one]	5.1
Nc1c(Oc2ccc(F)cc2)ncn(CC2(O)CCN(C(=O)[C@@H]3CCN(C(=O)NCc4ccccc4)C[C@H]3c3ccccc3)CC2)c1=O [Example 79, (3R,4R)-4-[4-[[5-amino-4-(4-fluorophenoxy)-6-oxo-pyrimidin-1-yl]methyl]-4-hydroxy-piperidine-1-carbonyl]-N-benzyl-3-phenyl-piperidine-1-carboxamide]	121
Nc1c(Oc2ccccc2)ncn(CC2(O)CCN(C(=O)[C@@H]3CCNC[C@H]3c3ccccc3)CC2)c1=O [Example 20, 5-amino-3-[4-hydroxy-1-[(3R,4R)N-phenylpiperidine-4-carbonyl-4-piperidyl]methyl]-6-phenoxy-pyrimidin-4-one]	112
CC1(N2CC[C@@H](C(=O)N3CCC(O)(Cn4cnc(Oc5ccc(F)cc5)c(N)c4=O)CC3)[C@H](c3ccccc3)C2)COC1 [Example 111, 5-amino-6-(4-fluorophenoxy)-3-[[4-hydroxy-1-[(3R,4R)-1-(3-methyloxetan-3-yl)-3-phenyl-piperidine-4-carbonyl]-4-piperidyl]methyl]pyrimidin-4-one]	312
Cc1ccc(-c2cccc(C(=O)N3CC[C@@H](C(=O)N4CCC(O)(Cn5cnc(Oc6ccc(F)cc6)c(N)c5=O)CC4)[C@H](c4ccccc4)C3)c2)cn1 [Example 32]	4.6
Cc1nc(-c2cccs2)sc1C(=O)N1CC[C@@H](C(=O)N2CCC(O)(Cn3cnc(Oc4ccc(F)cc4)c(N)c3=O)CC2)[C@H](c2ccccc2)C1 [Example 150, 5-amino-6-(4-fluorophenoxy)-3-[[4-hydroxy-1-[(3R,4R)-1-[4-methyl-2-(2-thienyl)thiazole-5-carbonyl]-3-phenyl-piperidine-4-carbonyl]-4-piperidyl]methyl]pyrimidin-4-one]	21.9
Nc1c(Oc2ccc(F)cc2)ncn(CC2(O)CCN(C(=O)[C@@H]3CCN(C4(c5ccc(F)cc5)COC4)C[C@H]3c3ccccc3)CC2)c1=O [Example 110, 5-amino-6-(4-fluorophenoxy)-3-[[1-[(3R,4R)-1-[3-(4-fluorophenyl)oxetan-3-yl]-3-phenyl-piperidine-4carbonyl]-4-hydroxy-4-piperidyl]methyl]pyrimidin-4-one]	182
CC(C)(O)CN1CC[C@@H](C(=O)N2CCC(O)(Cn3cnc(Oc4ccc(F)cc4)c(N)c3=O)CC2)[C@H](c2ccccc2)C1 [Example 73, 5-amino-6-(4-fluorophenoxy)-3-[[4-hydroxy-1-[(3R,4R)-1-(2-hydroxy-2-methyl-propyl)-3-phenyl-piperidine-4-carbonyl]-4-piperidyl]methyl]pyrimidin-4-one]	326
Nc1c(Oc2ccc(F)cc2)ncn(CC2(O)CCN(C(=O)[C@@H]3CCN(C(=O)NCC(F)(F)F)C[C@H]3c3ccccc3)CC2)c1=O [Example 90]	345
CC(C)(C)OC(=O)N1CC[C@@H](C(=O)N2CCC(O)(Cn3cnc(Oc4ccc(F)cc4)c(N)c3=O)CC2)[C@H](c2ccccc2)C1 [Example 8, tert-butyl (3R,4R)-4-[4-[[5-amino-4-(4-fluorophenoxy)-6-oxo-pyrimidin-1-yl]methyl]-4-hydroxy-piperidine-1-carbonyl]-3-phenyl-piperidine-1-carboxylate]	131
CC(C)C1(N2CC[C@@H](C(=O)N3CCC(O)(Cn4cnc(Oc5ccc(F)cc5)c(N)c4=O)CC3)[C@H](c3ccccc3)C2)COC1 [Example 112, 5-amino-6-(4-fluorophenoxy)-3-[[4-hydroxy-1-[(3R,4R)-1-(3-isopropyloxetan-3-yl)-3-phenyl-piperidine-4-carbonyl]-4-piperidyl]methyl]pyrimidin-4-one]	203
CC(C)(C)OC(=O)N1CC[C@@H](C(=O)N2CCC(O)(Cn3cnc(Oc4cccc(C(F)(F)F)c4)c(N)c3=O)CC2)[C@H](c2ccccc2)C1 [Example 5, tert-butyl (3R,4R)-4-[4-[[5-amino-6-oxo-4-[3-(trifluoromethyl)phenoxy]pyrimidin-1-yl]methyl]-4-hydroxy-piperidine-1-carbonyl]-3-phenyl-piperidine-1-carboxylate]	299
CC(C)(C)OC(=O)N1CC[C@@H](C(=O)N2CCC(O)(Cn3cnc(Oc4cccc(OC(F)(F)F)c4)c(N)c3=O)CC2)[C@H](c2ccccc2)C1 [Example 6]	398
Nc1c(Oc2cccc(C(F)(F)F)c2)ncn(CC2(O)CCN(C(=O)[C@@H]3CCNC[C@H]3c3ccccc3)CC2)c1=O [Example 18, 5-amino-3-[[4-hydroxy-1-[(3R,4R)-3-phenylpiperidine-4-carbonyl]-4-piperidyl]methyl]-6-[3-(trifluoromethyl)phenoxy]pyrimidin-4-one hydrochloride]	329
CC(C)(C)OC(=O)N1CC[C@@H](C(=O)N2CCC(O)(Cn3cnc(Oc4ccc(Cl)cc4)c(N)c3=O)CC2)[C@H](c2ccccc2)C1 [Example 1, tert-butyl (3R,4R)-4-[4-[[5-amino-4-(4-chlorophenoxy)-6-oxo-pyrimidin-1-yl]methyl]-4-hydroxy-piperidine-1-carbonyl]-3-phenyl-piperidine-1-carboxylate]	103
Nc1c(Oc2ccc(F)cc2)ncn(CC2(O)CCN(C(=O)[C@@H]3CCN(S(=O)(=O)c4ccc(-c5cccs5)s4)C[C@H]3c3ccccc3)CC2)c1=O [Example 118, 5-amino-6-(4-fluorophenoxy)-3-[[4-hydroxy-1-[(3R,4R)-3-phenyl-[[5-(2thienyl)-2-thienyl]sulfonyl]piperidine-4-carbonyl]-4-piperidyl]methyl]pyrimidin-4-one]	123
COc1cc(Cl)cc(Oc2ncn(CC3(O)CCN(C(=O)[C@@H]4CCN(C(=O)OC(C)(C)C)C[C@H]4c4ccccc4)CC3)c(=O)c2N)c1 [Example 2, tert-butyl (3R,4R)-4-[4-[[5-amino-4-(3-chloro-5-methoxy-phenoxy)-6-oxo-pyrimidin-1-yl]methyl]-4-hydroxy-piperidine-1-carbonyl]-3-phenyl-piperidine-1-carboxylate]	191
